This passage reports GI50 and TGI results from PubChem BioAssay (NCI).

Values joined by “and” are separate entries in the source; they are usually repeats but may differ in a detail not shown here. Identical values can stand only once.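 Grown in 96-well plates, cells were treated for 48 hours with each compound at five concentrations. Insufficient inhibition: endpoint recorded as highest concentration tested. GI50 marks 50% less growth. At the TGI there is no net growth.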

What all share (experiment): NCI-60 cell line screen, 48 h
The test system of test [1] is 786-0 renal.
Test [2] has as its system A498 renal.
In test [3] the test system is CCRF-CEM leukemia.
Test [4] has as its system NCI-H226 lung.
In test [5] the test system is RXF 393 renal.
Test [6] deals with SF-295 CNS.
Test [7] has as its system SK-MEL-5 melanoma.
For test [8], the system named is T-47D breast.

For the molecule `Nc1nc2ccc([C@@H]3Nc4ccc5[nH]ncc5c4[C@H]4[C@H]5CCC(C5)[C@H]43)cc2s1`, the GI50 is 1400 nM in test [1]; 0.288 µM in test [2]; 507 nM in test [3]; 1.91 µM in test [4]; 1.47 µM in test [5]; 648 nM in test [6]. Moreover, the figures for the GI50 in test [7] and in test [8] were 1660 nM and 790 nM, respectively. Moreover, the TGI came out at 10 µM in test [1]; 1.78 µM in test [2]; 19 µM in test [3]; 5.54 µM in test [4]; 7.56 µM in test [5]; 5.95 µM in test [6]. Besides, the results for the TGI in test [7] and in test [8] were 13 µM and 6.16 µM, respectively.

As for `COC(=O)c1ccc(=O)c2nc3/c(=C/O)c(O)cc(=O)c3[nH]c12`, the GI50 in test [1] was 1520 nM; in test [3], 397 nM; in test [4], 0.726 µM; in test [5], 0.637 µM; in test [6] it was 153 nM; in test [7] it was 1560 nM. Besides, in test [8], the GI50 is 1290 nM. Moreover, the TGI in test [1] was 23.8 µM and 17.9 µM; in test [2], 30.8 µM and 17.4 µM; in test [3], > 100 µM and 17.2 µM; in test [4], 12.2 µM and 12.8 µM; in test [5] it was 43.3 µM and 17.1 µM; in test [6], 14.3 µM and 8.64 µM. Besides, the TGI was 9.1 µM and 13.5 µM in test [7]; 8.65 µM and 48.2 µM in test [8].

As to `C=C1C(=O)O[C@H]2[C@H]1CC/C(COC(=O)C(=O)c1c[nH]c3ccc(OC)cc13)=C\CC[C@@]1(C)O[C@@H]21`, the GI50 in test [1] was 5370 nM; in test [3], 2470 nM; in test [4], 5.84 µM; in test [5], 3.21 µM; in test [6], 12400 nM; in test [7] it was 5480 nM. Besides, in test [8], the GI50 was 6980 nM. In addition, the TGI in test [1] worked out at 9.91 µM; in test [3] it was 23 µM; in test [4], 9.99 µM; in test [5], 6.84 µM; in test [6], 29.5 µM; in test [7], 8.72 µM. Besides, the TGI in test [8] was 12.4 µM.

For `O=C1C=CC(=O)C1(Br)Br`, the TGI in test [1] worked out at 23.8 µM; in test [2], 27.4 µM; in test [3], 26.6 µM; in test [4], 38.2 µM; in test [5], 15.9 µM; in test [6] it was 34.1 µM. Besides, the TGI in test [7] worked out at 34 µM; in test [8], 51.6 µM.

Consider `COc1cc2c3c(n(CCCN)c(=O)c2cc1OC)-c1ccc(F)cc1C3=O`, for which the GI50 in test [1] is 1340 nM; in test [2], 14.2 µM; in test [3], 170 nM; in test [4], 7.87 µM; in test [5], 7.64 µM; in test [6], 564 nM. Moreover, the values for the GI50 in test [7] and in test [8] were 1290 nM and 2460 nM, respectively. The TGI in test [1] stood at 2.7 µM; in test [2] it was 28.5 µM; in test [3] it was 0.987 µM; in test [4], 27.2 µM; in test [5] it was 26.6 µM; in test [6] it was 14.9 µM. Moreover, the TGI in test [7] stood at 6.06 µM; in test [8], 15.5 µM.

In the case of `COc1c2ccccc2c(O)c2c(=O)c(C(=O)O)cn(C)c12`, the GI50 was > 100000 nM in test [1]; 18.8 µM in test [2]; > 100000 nM in test [3]; 17.4 µM in test [4]; 80.3 µM in test [5]; 28800 nM in test [6]. For the same molecule, the GI50 in test [7] and in test [8] was > 100000 nM each time. In addition, the TGI in test [1], in test [2], in test [3], in test [4], in test [5] and in test [6] was > 100 µM each time. The TGI in test [7] and in test [8] was > 100 µM each time.

In the case of `C=C(CNCCc1ccc(O)cc1)[C@@H]1CC[C@]2(CO)CC[C@]3(C)[C@H](CC[C@@H]4[C@@]5(C)CCC(=O)C(C)(C)[C@@H]5CC[C@]43C)[C@@H]12`, the GI50 in test [1] was 1600 nM; in test [2], 1.38 µM; in test [3], 1920 nM; in test [4], 1.62 µM; in test [5], 1.28 µM; in test [6] it was 1740 nM. Also, the results for the GI50 in test [7] and in test [8] were 1630 nM and 1720 nM, respectively. Besides, the TGI came to 2.95 µM in test [1]; 2.77 µM in test [2]; 5.26 µM in test [3]; 3.64 µM in test [4]; 2.59 µM in test [5]; 3.22 µM in test [6]. The values for the TGI in test [7] and in test [8] were 2.99 µM and 4 µM, respectively.

As for `O=C(Oc1ccc([N+](=O)[O-])cc1)N1CCN(Cc2cccc(Oc3ccccc3)c2)CC1`, the GI50 was > 100000 nM in test [1]; > 47.6 µM in test [2]; 40500 nM in test [3]; > 100 µM in test [4]; > 100 µM in test [5]; 62900 nM in test [6]. In addition, the GI50 in test [7] is 18500 nM; in test [8], 17700 nM. The TGI in test [1], in test [2], in test [3], in test [4], in test [5] and in test [6] was > 100 µM each time. Moreover, the TGI is 58.7 µM in test [7] and > 100 µM in test [8].

As for `OCCCSc1ccccc1SCCCO`, the TGI in test [1], in test [3], in test [6], in test [7] and in test [8] was > 100 µM each time.

Turning to `COc1cc(NN=C(c2ccc(O)cc2)c2ccc(O)cc2)c([N+](=O)[O-])cc1[N+](=O)[O-]`, the GI50 is 11700 nM in test [1]; 13.2 µM in test [2]; 1370 nM in test [3]; 23.6 µM in test [4]; 8.05 µM in test [5]; 1730 nM in test [6]. Further, the GI50 was 6240 nM in test [7] and 1620 nM in test [8]. The TGI was 24.8 µM in test [1]; 35.2 µM in test [2]; > 100 µM in test [3]; 71.6 µM in test [4]; 22.9 µM in test [5]; 16.5 µM in test [6]. The TGI in test [7] was 20.6 µM; in test [8] it was 19.2 µM.
